In US7132524B2, “Plant brassinolide responsive genes and use thereof” (National Agriculture and Bio-oriented Research Organization, priority 2002, dated 2006):
“Also recorded” adds a separate entry of the source.

B1: OsBLE1: OsBLE1 cDNA (SEQ ID NO: 1) inserted in antisense direction in binary vector pIG121-Hm under CaMV 35S promoter (nucleic acid, listed as Oryza sativa)
DNA: AATTCGGCACGAGCGGCGGCGAGAGGAGCGGCGGCGATGGGCGGCGGCGGGCACGGCGGCGGCACGACGTACAAGGGGTACACCATCCCCCACAACAAGCGCTGGCACACCGTCGCCGGCAAGGGCCTCTGCGCCGTCATGTGGTTTTGGGTTTTCTACAGGGCTAAGCAGGACGGTGCTGTTCTCTTGGGCATGCGTCATCCTTGGGATGGTCATGATGATCACTCACATGGTCATGGGCATGAGCATGAGGGATCATCATCAACATCGTCGTCTCACTAAATCAACTGCTTCTTGGCGGCTGAGGGAGACTCGCTGCTTTGGTTGTCGCGATGAAATCCTCGAAGATAATAAAGTTTCACACTATTAATTTTATTAAGATGGGTTCATGTTGTTGGCAACTGTTTAAGGCAAACTGGTTATGTATTTTGCTTTTGAGATAGCCTCCCTCGATGGAAAACCCATGTATGTTGTTGCTTATTAGGCTGTGGACATCCTTTTGGATGTAGAGGCTGGGTTTTTAATCCATTATCTAAAAAAATGTTGTTGCTTCTTCCGATCAAAAAAAAAAAAAAAAAAAAAAAAAAAAAAAAAAAAA
modifications: antisense orientation in binary vector under 35S promoter; cDNA

Experiments:
[1] = tested on: Nipponbare rice cultivar; assay: Growth of rice transformed with antisense cDNA under CaMV 35S promoter; format: in vivo; settings: antisense direction in pIG121-Hm, Agrobacterium EHA101, FIGS. 5B-5C
Source text: Two different cDNAs were inserted into an expression vector in the antisense direction. The resulting vector was then introduced into Agrobacterium (EHA101). The resulting Agrobacterium was used to transform Nipponbare rice cultivar by the ultrahigh-speed transformation method for monocotyledons (Japanese Patent No. 3141084).
Both of cDNAs of OsBLE1 and OsBLE2 were modified to have SalI restriction site at their 5′ end and to have XbaI restriction sites at their 3′ ends. The modified cDNAs were then digested with XbaI and SalI and inserted into a binary vector pIG121-Hm (Ohta S., Mita S., Hattori T., Nakamura K., Plant Cell Physiol., 31: 805–813, 1990) at XbaI (5′ end) and SalI (3′ end) sites (in the antisense direction) under the control of cauliflower mosaic virus 35S promoter. The recombinant binary vectors were introduced into Agrobacterium EHA101, and the resulting Agrobacterium was introduced into Nipponbare rice cultivar by ultrahigh-speed transformation method for monocotyledons. […] Therefore, the present inventors have succeeded in dwarfing a transformed plant in which expression of a gene that is induced by addition of a plant hormone, brassinolide, is regulated.

[2] = tested on: OsBLE1 and OsBLE2 genes; assay: Northern blotting analysis of OsBLE1 and OsBLE2 expression after plant hormone treatment; format: in vivo, Rice (Nipponbare); settings: for expression of OsBLE1 and OsBLE2 following hormone treatment: leaf sheath and base of leaf blades, FIG. 2B-2C
Method: Rice (Nipponbare) was grown at 25° C. and 75% humidity with a 12-hrs day and 12-hrs night under white fluorescent light (about 600 μmol·m^−2sec^−1). Commercially available, high quality brassinolide (BL), gibberellin (GA), and indole-3-acetic acid (IAA) were used for the present invention. The method of Chomczynski and Sacchi (Chomczynski P., Sacchi N., Ana. Biochem., 162: 156–159, 1987) was used to extract RNA for RNA blotting analysis. An mRNA purification kit oligotex-dT-30 (Takara), was used to prepare mRNA for micro-array analysis. After tissue samples were quickly frozen in liquid nitrogen, about 0.5 g of the frozen tissue was ground into powder in a mortar and pestle. Total RNA was prepared by the method of Chomczynski and Sacchi (Chomczynski P., Sacchi N., Anal. Biochem., 162: 156–159, 1987). Then, mRNA for microarray analysis was purified from the total RNA using oligotexdT kit (Takara). For Northern blot analysis, 20 μg of the total RNA were electrophoresed in a 1.2% agarose gel containing 6% formaldehyde and then transferred to a Hybond™-N^+ nylon membrane. In order to ensure equivalent amount of RNAs were electrophoresed for Northern blotting, the present inventors stained gels with ethidium bromide to compare rRNA quantity. Hybridization was carried out at 42° C. overnight using ULTRAhyb™ (Ambion), and the membrane was washed with 2×SSC and 0.1% SDS at 42° C. for 5 min, and then with 0.1×SSC and 0.1% SDS at 68° C. for 15 min. Nylon membrane was exposed to X-ray film (Kodak). The expression patterns of the 12 genes were analyzed by Northern blotting. The present inventors then found two genes whose expression occurs one to six hours after brassinolide treatment and was increased in the leaf sheath and the base of leaf blades by auxin and brassinolide treatment (FIGS. 2A–2C). The present inventors named these two genes OsBLE1 and OsBLE2.

[3] = tested on: 1265 rice genes (EST clones); assay: cDNA microarray analysis of rice seedling leaf blade base after brassinolide treatment; format: in vivo, Rice (Nipponbare); settings: base of leaf blades of rice seedling, 1 μM brassinolide, 48 hours; depending on the concentration
Method: Rice (Nipponbare) was grown at 25° C. and 75% humidity with a 12-hrs day and 12-hrs night under white fluorescent light (about 600 μmol·m^−2sec^−1). Commercially available, high quality brassinolide (BL), gibberellin (GA), and indole-3-acetic acid (IAA) were used for the present invention. The method of Chomczynski and Sacchi (Chomczynski P., Sacchi N., Ana. Biochem., 162: 156–159, 1987) was used to extract RNA for RNA blotting analysis. An mRNA purification kit oligotex-dT-30 (Takara), was used to prepare mRNA for micro-array analysis. A cDNA microarray containing 1265 EST clones was used. RNA was isolated from the base of leaf blades treated with 1 μM brassinolide for 48 hours. Reverse transcription reaction was performed for two hours at 42° C. using 1 μg of mRNA in the presence of 50 μM Cy5 dCTP (Amersham Pharmacia), and then stopped. After heated at 94° C. for 3 min, the resulting mixture was treated with NaOH at 37° C. for 15 min to digest the RNA, and then cDNA was recovered. Fluorescently labeled cDNA probe was purified using a QIA quick PCR purification kit (Qiagen). […] Data were analyzed according to Array Vision (Imaging Research). Total RNA was extracted from the base of leaf blades of rice (Nipponbare) seedling treated with 1 μM brassinolide, and the RNA was analyzed using cDNA microarrays containing 1265 rice genes. […]

Row | Molecule | growth of stem and leaf of transformed rice compared to controls containing the vector alone [1] | expression of OsBLE1 and OsBLE2 following hormone treatment [2] | expression level of the 12 different genes [3] | time after treatment at which expression of OsBLE1 and OsBLE2 occurs / is induced ([2]; FIG. 2A)
1 | OsBLE2: OsBLE2 cDNA (SEQ ID NO: 3) inserted in antisense direction in binary vector pIG121-Hm under CaMV 35S promoter | suppressed growth of stem and leaf | – | – | –
2 | O=C(O)Cc1c[nH]c2ccccc12 [IAA, indole-3-acetic acid] | – | increased | – | –
3 | CC(C)[C@H](C)[C@@H](O)[C@H](O)[C@@H](C)[C@H]1CC[C@H]2[C@@H]3COC(=O)[C@H]4C[C@H](O)[C@H](O)C[C@]4(C)[C@H]3CC[C@]12C [brassinolide] | – | increased | markedly increased | two to six; also recorded: one to six
4 | C=C1C[C@]23C[C@@]1(O)CC[C@H]2[C@@]12C=C[C@H](O)[C@@](C)(C(=O)O1)[C@H]2[C@@H]3C(=O)O [GA3, gibberellin] | – | increased | – | –
5 | B1 | suppressed growth of stem and leaf | – | – | –
